Molecules are shown by their SMILES.

Data on 4 compounds can be found in patent US6943017B2, “Method of producing antihypercholesterolemic agents” (Wisconsin Alumni Research Foundation, priority 1998, dated 2005).

Holding throughout (assay type): cell-based
In experiment [1] the test system is fungi. Nature of the experiment: Antifungal activity (general statement). To be noted: noted by Applicants, no test described. The text has this:
Applicants envision that the present invention is also useful for providing antifungal compounds and organisms engineered to express antifungal compounds. Preferably, one would measure the antifungal properties of a compound in the manner of N. Lomovskaya, et al., Microbiology 143:875-883, 1997. Measurement of inhibition of yeast growth can be found in R. Ikeura, et al., J. Antibiotics 41:1148, 1988. The same general methods could be used for all fungi. Both of these references are hereby incorporated by reference.

Experiment [2] deals with A. nidulans strains WMH1739 and WMH1740 (WMH1738 transformed with pWHM1263). In words: Lovastatin resistance test: spore suspension streaked on solid AMM plates containing lovastatin. The procedure:
(§1) This strain WMH1738 was transformed to hygromycin B resistance with pWHM1263. Transformant colonies were screened for lovastatin resistance and for the production of new metabolites as described below and two strains WMH1739 and WMH1740 were chosen for further analysis. […] This was analyzed by streaking 10 μl of a spore suspension on solid AMM plates containing lovastatin at 0, 0.1, 0.5, 1, 5, 10, 50 and 100 μg/ml and incubating at 37° C. Strains WMH1739 and WMH1740 were compared to strains WMH1741 and WMH1742 which were derivatives of WMH1738 transformed to hygromycin resistance with AN26. […] The two lovastatin resistant strains were fermented in lovastatin-producing conditions using fermentation method B and extracts were analyzed for lovastatin related metabolites as described below. […] One compound that was common to both comigrated with monacolin J on TLC and HPLC analysis by the methods described below. Semi-preparative HPLC was used to partially purify some of this compound, which was then analyzed by HPLC—MS. It had the same mass and fragmentation pattern as authentic monacolin J. The other compound, found in only one of the strains, comigrated with monacolin L on TLC and HPLC.

In experiment [3] the test system is A. nidulans strains WMH1741 and WMH1742 (WMH1738 transformed with AN26). Described as above. To be noted: 37° C. The procedure: as §1

As for `C[C@H]1C=C2C=C[C@H](C)[C@H](CC[C@@H]3C[C@@H](O)CC(=O)O3)[C@H]2[C@@H](O)C1` [monocolin J, monacolin J], in experiment [1], the antifungal activity result is reported as “varying degrees of antifungal activity”.

`C[C@H]1C=C2C=C[C@H](C)[C@H](CC[C@@H]3C[C@@H](O)CC(=O)O3)[C@H]2CC1` [monocolin L, monacolin L]: the antifungal activity result in experiment [1] is “varying degrees of antifungal activity”.

`CC[C@H](C)C(=O)O[C@H]1C[C@@H](C)C=C2C=C[C@H](C)[C@H](CC[C@@H]3C[C@@H](O)CC(=O)O3)[C@H]21` [lovastatin]: the inhibition of growth entry in experiment [2] (strains WMH1739 and WMH1740, lovastatin at 0, 0.1, 0.5, 1, 5, 10, 50 and 100 μg/ml on solid AMM plates, 37° C.) is “no inhibition of growth”; in experiment [3] (lovastatin 5 μg/ml on solid AMM plates), “slight inhibition”; in experiment [3] (lovastatin 50 μg/ml on solid AMM plates), “almost complete growth inhibition”. Also, in experiment [2] (strains WMH1739 and WMH1740 compared with the host strain, solid media), the “lovastatin concentration to which strains were significantly resistant” value is on record as “up to 100 μg/ml”. Besides, in experiment [1], the antifungal activity result is given as “varying degrees of antifungal activity”.

Consider `C[C@@H]1CC[C@@H]2[C@@H](CC[C@@H]3C[C@@H](O)CC(=O)O3)[C@@H](C)C=C[C@H]2C1` [dihydromonocolin L, dihydromonacolin L], for which the antifungal activity result in experiment [1] is recorded as “varying degrees of antifungal activity”.
